Test system: 565232-114-T-J1-PDC complex spheroid viability
Experiment: Anticancer human tumor 565232-114-T-J1-PDC patient-derived bladder carcinoma cell line growth inhibition [CLK]
Settings: for IC50: curve of first compound; for viability, T/C: stronger effect = lower value
Text: A high-throughput screen of multi-cell type tumor spheroids was designed to identify active combinations of […] and targeted small molecules. Complex spheroids include a stromal component modeled by human endothelial cells (HUVEC) and fibroblasts modeled by human mesenchymal stem cells (MSCs). The concentration ranges selected for each drug and investigational agent were based upon clinically achievable concentrations if the clinical Cmax of the agent was known.
Compounds. The drugs and investigational agents: cirtuvivint (SM08502; NSC835563), CC-671 (NSC850746), vemurafenib (NSC761431), tapotoclax (NSC804041), sotorasib (NSC818433), adagrasib (NSC831453), MRTX-1133 (NSC836407), BAY2416964 (NSC825713), copanlisib (NSC816437), inavolisib (NSC800729), abemaciclib (NSC768073), osimertinib (NSC779217), entinostat (NSC756642), eltanexor (KPT-8602, NSC794443), venetoclax (NSC766270), ceralasertib (NSC777638), bortezomib (NSC756655), olaparib (NSC753686), talazoparib (NSC767125), alisertib (NSC759677), peposertib (NSC802822), gemcitabine (NSC613327), 5-fluorouracil (NSC19893), SN-38 (NSC673596), oxaliplatin (NSC266046), paclitaxel (NSC125973), and doxorubicin (NSC123127), were obtained from the National Cancer Institute (NCI) Developmental Therapeutics Program Chemical Repository. The FDA-approved anticancer drug set is available from the Developmental Therapeutics Program at https://dtp.cancer.gov/organization/dscb/obtaining/available plates.htm. […] The stock solutions were prepared in dimethyl sulfoxide (DMSO, Sigma-Aldrich, St. Louis, MO, cat. D2650), except for the platinum complexes which were prepared in saline (Quality Biological, Gaithersburg, MD, cat. 114-055-101), at 800-fold the tested concentration and stored at -70 degrees C prior to their use. All drugs and investigational agents were tested over a range starting from a high concentration at or near the clinical Cmax and decreasing in half-log increments. If the clinical Cmax for an agent had not been determined, the highest concentration tested was 10 microM.
Cell Culture. All cells were maintained in an incubator at 37 degrees C and 5% CO2 with 95% humidity. The PDC lines were cultured according to standard operating procedures established by the NCI PDMR. Briefly, all PDCs were thawed and cultured in Matrigel-coated flasks prepared with a working solution of 1X Ham's F-12 nutrient mix, without supplementation (Invitrogen, Waltham, MA, cat. 11765054), 100 U/mL penicillin-streptomycin (Invitrogen, cat. 15140122), and 2.5% Matrigel (Corning Inc., Corning, NY, cat. 354248) for the first three passages. The 947758-054-R-J2-PDC line was cultured in 6B/Colon 1A media, which includes advanced DMEM/F-12 (Thermo Fisher Scientific, cat. 12634028), 10 mM HEPES (Thermo Fisher Scientific, cat. 15630080), 1X GlutaMAX supplement (Thermo Fisher Scientific, cat. 35050061), 0.1 mg/mL primocin (InvivoGen, cat. ant-pm-2), 10% defined fetal bovine serum, heat inactivated (HyClone Laboratories Inc., cat. SH30070.03HI), 1.25 mM N-Acetyl-L-cysteine (Sigma-Aldrich, cat. A9165), 10 mM nicotinamide (Sigma-Aldrich, cat. N0636), 1X B-27 supplement (Thermo Fisher Scientific, cat. 17504044), 1X N-2 supplement (Thermo Fisher Scientific, cat. 17502048), and 10 microM Y-27632 dihydrochloride (Tocris Bioscience, cat. 1254). The 876862-298-R-J1-PDC was cultured in 6E media, which includes all 6B/Colon 1A media components plus 50% L-WRN conditioned media (ATCC, cat. CRL-3276), 50 ng/mL recombinant human EGF recombinant protein (hEGF; Thermo Fisher Scientific, cat. PHG0311), 10 ng/mL recombinant human fibroblast growth factor 10 (hGFG-10; PeproTech, cat. 100-26), 1 ng/mL recombinant human fibroblast growth factor 2 (hFGF-2; PeproTech, cat. 100-18B), and 1 µM prostaglandin E2 (PGE2; Tocris, cat. 2296). The 227483-062-R1-J1-PDC line was cultured in Panc media, containing all 6E components except hFGF-2, with the addition of 500 nM SB-431542 (Selleckchem, cat. S1067) and 10 nM gastrin (Tocris, cat. 3006). […]
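Note: spheroids exposed to compounds for 7 days before readout.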
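Throughout, for viability, T/C: 100% = DMSO vehicle wells with luminescence normalized to vehicle control.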

## C=CC(=O)Nc1cc(Nc2nccc(-c3cn(C)c4ccccc34)n2)c(OC)cc1N(C)CCN(C)C + CN1CCN(c2cc(C(=O)Nc3cc4cc(-c5cnn(C)c5)ccc4cn3)ccn2)CC1
Second compound 0.0316 µM
  IC50: > 300 nM
Second compound 0.1 µM
  IC50: > 300 nM
Second compound 0.316 µM
  IC50: < 0.949 nM
Second compound 1 µM
  IC50: < 0.949 nM
Second compound 3.16 µM
  IC50: < 0.949 nM
Second compound 10 µM
  IC50: < 0.949 nM
Second compound 0.0316 µM, first compound 0.000949 µM
  viability, T/C: 104%
Second compound 0.0316 µM, first compound 0.003 µM
  viability, T/C: 95.3%
Second compound 0.0316 µM, first compound 0.00949 µM
  viability, T/C: 106%
Second compound 0.0316 µM, first compound 0.03 µM
  viability, T/C: 84.1%
Second compound 0.0316 µM, first compound 0.0949 µM
  viability, T/C: 90.6%
Second compound 0.0316 µM, first compound 0.3 µM
  viability, T/C: 83.7%
Second compound 0.1 µM, first compound 0.000949 µM
  viability, T/C: 97.5%
Second compound 0.1 µM, first compound 0.003 µM
  viability, T/C: 85.8%
Second compound 0.1 µM, first compound 0.00949 µM
  viability, T/C: 110%
Second compound 0.1 µM, first compound 0.03 µM
  viability, T/C: 89.3%
Second compound 0.1 µM, first compound 0.0949 µM
  viability, T/C: 97.9%
Second compound 0.1 µM, first compound 0.3 µM
  viability, T/C: 94.5%
Second compound 0.316 µM, first compound 0.000949 µM
  viability, T/C: 14.9%
Second compound 0.316 µM, first compound 0.003 µM
  viability, T/C: 20.3%
Second compound 0.316 µM, first compound 0.00949 µM
  viability, T/C: 20.1%
Second compound 0.316 µM, first compound 0.03 µM
  viability, T/C: 20.5%
Second compound 0.316 µM, first compound 0.0949 µM
  viability, T/C: 18.7%
Second compound 0.316 µM, first compound 0.3 µM
  viability, T/C: 18.3%
Second compound 1 µM, first compound 0.000949 µM
  viability, T/C: 0.2%
Second compound 1 µM, first compound 0.003 µM
  viability, T/C: 0.26%
Second compound 1 µM, first compound 0.00949 µM
  viability, T/C: 1.8%
Second compound 1 µM, first compound 0.03 µM
  viability, T/C: 0.2%
Second compound 1 µM, first compound 0.0949 µM
  viability, T/C: 0.2%
Second compound 1 µM, first compound 0.3 µM
  viability, T/C: 1.48%
Second compound 3.16 µM, first compound 0.000949 µM
  viability, T/C: 0.23%
Second compound 3.16 µM, first compound 0.003 µM
  viability, T/C: 0.22%
Second compound 3.16 µM, first compound 0.00949 µM
  viability, T/C: 1.48%
Second compound 3.16 µM, first compound 0.03 µM
  viability, T/C: 0.22%
Second compound 3.16 µM, first compound 0.0949 µM
  viability, T/C: 0.91%
Second compound 3.16 µM, first compound 0.3 µM
  viability, T/C: 0.82%
Second compound 10 µM, first compound 0.000949 µM
  viability, T/C: 0.23%
Second compound 10 µM, first compound 0.003 µM
  viability, T/C: 0.26%
Second compound 10 µM, first compound 0.00949 µM
  viability, T/C: 1.25%
Second compound 10 µM, first compound 0.03 µM
  viability, T/C: 1.11%
Second compound 10 µM, first compound 0.0949 µM
  viability, T/C: 1.9%
Second compound 10 µM, first compound 0.3 µM
  viability, T/C: 1.19%

## CCN1CCN(Cc2ccc(Nc3ncc(F)c(-c4cc(F)c5nc(C)n(C(C)C)c5c4)n3)nc2)CC1 + CN1CCN(c2cc(C(=O)Nc3cc4cc(-c5cnn(C)c5)ccc4cn3)ccn2)CC1
Second compound 0.0316 µM
  IC50: > 1000 nM
Second compound 0.1 µM
  IC50: > 1000 nM
Second compound 0.316 µM
  IC50: < 3.16 nM
Second compound 1 µM
  IC50: < 3.16 nM
Second compound 3.16 µM
  IC50: < 3.16 nM
Second compound 10 µM
  IC50: < 3.16 nM
Second compound 0.0316 µM, first compound 0.00316 µM
  viability, T/C: 116%
Second compound 0.0316 µM, first compound 0.01 µM
  viability, T/C: 82.1%
Second compound 0.0316 µM, first compound 0.0316 µM
  viability, T/C: 98.7%
Second compound 0.0316 µM, first compound 0.1 µM
  viability, T/C: 92.8%
Second compound 0.0316 µM, first compound 0.316 µM
  viability, T/C: 113%
Second compound 0.0316 µM, first compound 1 µM
  viability, T/C: 123%
Second compound 0.1 µM, first compound 0.00316 µM
  viability, T/C: 88.1%
Second compound 0.1 µM, first compound 0.01 µM
  viability, T/C: 90.2%
Second compound 0.1 µM, first compound 0.0316 µM
  viability, T/C: 89%
Second compound 0.1 µM, first compound 0.1 µM
  viability, T/C: 103%
Second compound 0.1 µM, first compound 0.316 µM
  viability, T/C: 116%
Second compound 0.1 µM, first compound 1 µM
  viability, T/C: 113%
Second compound 0.316 µM, first compound 0.00316 µM
  viability, T/C: 15.5%
Second compound 0.316 µM, first compound 0.01 µM
  viability, T/C: 24.7%
Second compound 0.316 µM, first compound 0.0316 µM
  viability, T/C: 23.2%
Second compound 0.316 µM, first compound 0.1 µM
  viability, T/C: 29.1%
Second compound 0.316 µM, first compound 0.316 µM
  viability, T/C: 42.4%
Second compound 0.316 µM, first compound 1 µM
  viability, T/C: 61.1%
Second compound 1 µM, first compound 0.00316 µM
  viability, T/C: 0.26%
Second compound 1 µM, first compound 0.01 µM
  viability, T/C: 0.27%
Second compound 1 µM, first compound 0.0316 µM
  viability, T/C: 0.3%
Second compound 1 µM, first compound 0.1 µM
  viability, T/C: 0.29%
Second compound 1 µM, first compound 0.316 µM
  viability, T/C: 1.31%
Second compound 1 µM, first compound 1 µM
  viability, T/C: 2.37%
Second compound 3.16 µM, first compound 0.00316 µM
  viability, T/C: 0.2%
Second compound 3.16 µM, first compound 0.01 µM
  viability, T/C: 0.22%
Second compound 3.16 µM, first compound 0.0316 µM
  viability, T/C: 0.96%
Second compound 3.16 µM, first compound 0.1 µM
  viability, T/C: 0.16%
Second compound 3.16 µM, first compound 0.316 µM
  viability, T/C: 0.25%
Second compound 3.16 µM, first compound 1 µM
  viability, T/C: 0.35%
Second compound 10 µM, first compound 0.00316 µM
  viability, T/C: 0.18%
Second compound 10 µM, first compound 0.01 µM
  viability, T/C: 0.2%
Second compound 10 µM, first compound 0.0316 µM
  viability, T/C: 0.5%
Second compound 10 µM, first compound 0.1 µM
  viability, T/C: 0.16%
Second compound 10 µM, first compound 0.316 µM
  viability, T/C: 0.21%
Second compound 10 µM, first compound 1 µM
  viability, T/C: 1.34%
